Experiment in all cases: NCI-60 cell line screen, 48 h
Experiment [1] has as its system HOP-92 NSCLC.
Experiment [2] relates to SK-MEL-5 melanoma.
Experiment [3] concerns HCT-15 colon.
The subject of experiment [4] is TK-10 renal.
In experiment [5] the test system is RPMI-8226 leukemia.
Experiment [6] relates to DU-145 prostate.
The subject of experiment [7] is HS 578T breast.
The subject of experiment [8] is MDA-MB-435.
For experiment [9], the system named is NCI-H226 lung.
For experiment [10], the system named is EKVX NSCLC.
The test system of experiment [11] is HCC-2998 colon.
Experiment [12] deals with A549 NSCLC.
The subject of experiment [13] is M14 melanoma.
In experiment [14] the test system is MDA-N.
Experiment [15] deals with OVCAR-5 ovarian.
The test system of experiment [16] is SK-OV-3 ovarian.

Structures are written as SMILES.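 48-hour exposure; five concentrations; linearly interpolated endpoints. GI50: concentration for 50% inhibition of growth. The concentration for full growth arrest is given as TGI.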

In the case of `COc1ccc(NC(=S)Nc2cc(C)ccn2)cc1`, the TGI in [1], in experiment [2], in experiment [3], in experiment [4], in experiment [5] and in experiment [6] was > 100 µM each time. For the same compound, the TGI in [7], in experiment [8], in [9], in experiment [10] and in experiment [11] was > 100 µM each time.
In the case of `C1=C(CC2=C[P+](c3ccccc3)(c3ccccc3)C=C(c3ccccc3)O2)OC(c2ccccc2)=C[P+]1(c1ccccc1)c1ccccc1`, the TGI in experiment [2] was 0.964 µM; in experiment [3], 3.22 µM; in experiment [4], 1.67 µM; in experiment [5] it was 0.558 µM; in experiment [12] it was 5.49 µM; in [13], 1.8 µM. Further, the TGI worked out at 1.73 µM in [6]; 1.22 µM in experiment [14]; 1.11 µM in experiment [8]; 2.39 µM in experiment [15]; 1.68 µM in [10]; 1.41 µM in experiment [16].
Turning to `O=C(CP(=O)(c1ccccc1)c1ccccc1)c1cccc(C(=O)CP(=O)(c2ccccc2)c2ccccc2)c1`, the TGI in experiment [2], in experiment [3], in experiment [4], in [5], in experiment [12] and in experiment [13] was > 100 µM each time. For the same compound, the TGI is > 100 µM in [6]; 57.9 µM in [7]; > 100 µM in [8]; > 100 µM in experiment [9]; > 100 µM in experiment [15]; > 100 µM in experiment [10]. The results for the TGI in experiment [16] and in experiment [11] were 56.1 µM and > 100 µM, respectively.
Turning to `O=C1Cc2c([nH]c3ccc(Br)cc23)-c2cc(Br)ccc2N1`, the TGI in experiment [1], in experiment [2], in experiment [3], in experiment [4], in [5] and in [12] was > 100 µM throughout. The TGI in [13], in [6], in [8], in [9], in experiment [15] and in [10] was > 100 µM throughout. Further, the TGI in experiment [16] and in experiment [11] was > 100 µM throughout.
As to `COc1cc2c(/C=C3/C(=O)Nc4ccc(O)cc43)c(Cl)n(Cc3ccccc3)c2cc1C`, the TGI in experiment [1] was > 78.3 µM; in [2] it was 2.46 µM; in [3], > 22.6 µM; in experiment [4] it was > 40.7 µM; in experiment [5], 6.74 µM; in experiment [12], > 100 µM. Also, the TGI in [13] was 11.8 µM; in experiment [6], 26 µM; in [7], 3.36 µM; in [9], 15.5 µM; in experiment [15], 14.5 µM; in experiment [10], > 100 µM. The TGI is > 60.2 µM in [16] and 0.799 µM in experiment [11]. For the same compound, the GI50 in [11] was 0.201 µM.
Turning to `Cc1ccc(S(=O)(=O)NC(=O)NCc2ccc(S(N)(=O)=O)cc2)cc1`, the TGI in [1], in experiment [2], in [3], in [4], in experiment [5] and in [12] was > 100 µM in each case. The TGI in [13], in experiment [6], in [7], in [8], in experiment [9] and in [15] was > 100 µM throughout. The TGI in [10], in experiment [16] and in [11] was > 100 µM in each case.
As for `Cc1ccc(-c2c(C#N)c(-c3ccccc3)n(NS(=O)(=O)c3ccc(C)cc3)c(=O)c2C#N)cc1`, the TGI in [1] was > 100 µM; in experiment [2], 62.5 µM; in experiment [3], > 100 µM; in experiment [4], > 100 µM; in [5], 31.6 µM; in experiment [12] it was > 100 µM. Also, the TGI in experiment [13], in [14], in experiment [8], in experiment [9], in [15] and in experiment [10] was > 100 µM throughout. For the same compound, the TGI in [16] and in experiment [11] was > 100 µM each time.
Consider `O=C1C2=Cc3ccccc3CCN2c2ccccc21`, for which the TGI in experiment [1] is > 92.3 µM; in [2], 34.1 µM; in experiment [3], > 79.5 µM; in experiment [4], > 100 µM; in [5] it was 23.3 µM; in experiment [12] it was > 100 µM. For the same compound, the TGI in experiment [13] is 26.8 µM; in experiment [6], > 100 µM; in experiment [7], > 100 µM; in experiment [8], > 56.3 µM; in experiment [9], 22 µM; in [15], > 100 µM. The TGI in [10] is > 94.5 µM.
As to `C=CC(C)(C)n1cc(C2=C3OC(=O)C(c4cn(C(C)(C)C=C)c5ccccc45)=C3OC2=O)c2ccccc21`, the TGI in [1], in experiment [2], in experiment [3], in [4], in experiment [5] and in experiment [12] was > 100 µM each time. Also, the TGI in experiment [13], in experiment [6], in experiment [14], in experiment [8], in experiment [9] and in [15] was > 100 µM in each case. For the same compound, the TGI in experiment [10] and in experiment [11] was > 100 µM in each case.
For the compound `COc1cccc(Nc2nc(C)c([N+](=O)[O-])c(Nc3cccc(OC)c3)n2)c1`, the TGI is > 100 µM in experiment [1]; 77.2 µM in experiment [2]; > 100 µM in [3]; 95.7 µM in experiment [4]; 45.9 µM in [5]; > 100 µM in experiment [12]. Moreover, the TGI is > 100 µM in [13]; 56.1 µM in [6]; > 100 µM in [7]; > 100 µM in experiment [14]; > 100 µM in experiment [9]; > 100 µM in experiment [15]. Also, the results for the TGI in [10] and in experiment [16] were 78.4 µM and > 100 µM, respectively.
Consider `Cc1nc(N)c(N2CCN(S(N)(=O)=O)CC2)c(=O)[nH]1`, for which the TGI in experiment [3], in experiment [4], in [5], in experiment [12], in [13] and in [6] was > 100 µM each time. In addition, the TGI in experiment [7], in experiment [8], in experiment [9], in experiment [15], in [10] and in [11] was > 100 µM throughout.
In the case of `COc1cc2c(cc1C)NC(=O)/C2=C/c1cccnc1`, the TGI in [1] is 41.9 µM; in [2] it was 25.3 µM; in experiment [3], > 78 µM; in experiment [4], 31.1 µM; in [5], 79.1 µM; in [12] it was > 55.3 µM. The TGI stood at 37.5 µM in [13]; 27.3 µM in [6]; 97.2 µM in [7]; 86.1 µM in experiment [8]; 24.3 µM in experiment [9]; 27.9 µM in experiment [15]. The TGI was 47 µM in experiment [10], 34.3 µM in experiment [16] and 8.28 µM in [11]. Further, the GI50 in experiment [5] is 12.7 µM; in [9] it was 10.9 µM.
Regarding `COC(=O)C1=CC2C(=O)c3ccccc3C1(c1ccccc1)N2C1CCCCC1` (stereo not given), the TGI is > 100 µM in [1]; 22 µM in experiment [2]; > 100 µM in experiment [3]; > 100 µM in experiment [4]; > 100 µM in [12]; > 100 µM in [13]. Further, the TGI is > 100 µM in experiment [6]; > 100 µM in experiment [14]; 43.4 µM in experiment [8]; 84.1 µM in experiment [9]; > 100 µM in experiment [15]; > 100 µM in [10]. For the same compound, the figures for the TGI in experiment [16] and in experiment [11] were > 100 µM and 30.1 µM, respectively.
As for `CCCCNC(=S)Nc1nc(C(=O)NNC(=S)NCC)cs1`, the TGI in experiment [2], in experiment [3], in experiment [4], in experiment [5], in experiment [12] and in experiment [13] was > 100 µM throughout. For the same compound, the TGI in [6], in experiment [14], in [8], in experiment [15], in experiment [10] and in experiment [16] was > 100 µM in each case. The TGI in experiment [11] was > 100 µM.
`O=S(=O)(O)CCSSCCS(=O)(=O)O`: the TGI in experiment [1], in experiment [3], in experiment [4], in experiment [5], in [12] and in [13] was > 1000 µM each time. Moreover, the TGI in [6], in experiment [14], in experiment [8], in [9], in [15] and in experiment [10] was > 1000 µM each time. For the same compound, the TGI in experiment [16] and in experiment [11] was > 1000 µM each time.
As for `NCc1ccc(-c2ccc(CN)s2)s1`, the TGI in experiment [1] is > 100 µM; in experiment [2], > 100 µM; in experiment [3] it was > 100 µM; in experiment [4], 68.7 µM; in [5] it was > 100 µM; in experiment [12], > 100 µM. The TGI in experiment [13], in experiment [6], in [14], in [8], in [9] and in [15] was > 100 µM throughout. The TGI in [10], in [16] and in experiment [11] was > 100 µM throughout.
`O=[N+]([O-])/C(C(Cl)=C(Cl)Cl)=C1\Nc2ccc([N+](=O)[O-])cc2N1`: the TGI in experiment [1], in experiment [2], in [3], in experiment [4], in [5] and in [12] was > 100 µM in each case. The TGI in [13], in experiment [6], in experiment [14], in experiment [8], in [9] and in [15] was > 100 µM throughout. Moreover, the TGI in experiment [10] and in experiment [16] was > 100 µM throughout.
Take `O=C1c2ccccc2C(=O)C2NC(CCCCCSSCCCCCC3=NC4C(=O)c5ccccc5C(=O)C4N3)=NC12` (stereo not given): the TGI was 69.2 µM in experiment [1]; > 100 µM in [2]; > 100 µM in [3]; > 100 µM in experiment [4]; > 100 µM in experiment [5]; > 100 µM in experiment [13]. Moreover, the TGI in experiment [6], in [7], in [8], in experiment [9], in experiment [15] and in experiment [10] was > 100 µM each time. Moreover, the TGI in experiment [16] is > 100 µM.
Turning to `CC(=O)OCC(OC(C)=O)C1C[C@H]2O[C@@H]3[C@H](C[C@H]2O1)O[C@@]1(C[C@@H]3C)C[C@H](C)[C@@H]2O[C@]3(C[C@@H]2O1)C[C@H]1O[C@H]2[C@H](C)[C@H]4OC(=O)C[C@H]5CC[C@@H]6OC7[C@H]8O[C@]9(CC[C@H]%10CC(=O)[C@H](CC[C@H]%11C[C@@H](C)C(=O)C(C[C@@H]4O[C@H]2C[C@H]1O3)O%11)O%10)CC8O[C@@H]7[C@@H](O9)[C@H]6O5` (stereo not given in full), the TGI in experiment [1] is > 1 µM; in experiment [2] it was > 1 µM; in experiment [3], > 0.219 µM; in experiment [4], > 1 µM; in experiment [12], > 1 µM; in [13], > 1 µM. Moreover, the TGI was > 1 µM in [6]; 0.00604 µM in [7]; 0.0171 µM in experiment [8]; 0.0731 µM in experiment [9]; > 1 µM in experiment [10]; > 0.22 µM in [16].
